Test results as given in patent US20180064739A1, “NUTRITIONAL COMPOSITION WITH HUMAN MILK OLIGOSACCHARIDES AND USES THEREOF” (Mead Johnson Nutrition Company, priority 2016, published 2018).

How the values were obtained:
[1] = tested on: ganglioside-bound sialic acid in corpus callosum and cerebellum; experiment: Ganglioside-bound sialic acid in brain regions of suckling pigs fed sialyllactose diets (periodic acid-resorcinol reaction); assay type: in vivo; conditions: diet supplemented with 4 g/L, fed 21 days
Text: This study sought to determine whether administration of certain isomers of sialyllactose could increase or enrich sialic acid in the brain tissues of neonatal pigs. Indeed, accumulation of sialic acid in the brain during neonatal development is associated with increased cognitive functioning. Further, sialic acid (SA) is a key component of human milk oligosaccharides and neural tissues. SA accumulates in the brain rapidly during neonatal development and is thought to play an important role in brain development. […] Piglets readily consumed the formula, grew at normal rates and remained clinically healthy throughout the experiment.
After 21 days, the pigs were euthanized and the left hemisphere of the brain was dissected into cerebrum, cerebellum, corpus callosum, and hippocampus regions. […] The lipid- and protein-bound sialic acid contents from each sample were determined using a modified periodic acid-resorcinol reaction. Free sialic acid was calculated by difference. Briefly, the sialic from the protein and ganglioside fractions was first oxidized using the periodic acid reagent, which released the oxidized sialic-aldehyde derivative quantitatively. The released sialic derivative was measured colorimetrically using the resorcinol-HCl reagent.

[2] = tested on: microbial taxa of the proximal and distal colon; experiment: Gut microbiome of suckling pigs, 16S rDNA Illumina sequencing of colon digesta; assay type: in vivo; conditions: 21 days
Text: This study sought to determine whether administration of certain isomers of sialyllactose could modulate the microbiome of developing neonatal pigs, i.e. suckling pigs. Indeed, selectively promoting beneficial gut microbiota in preterm and term infants, toddlers, and children may provide long-term health benefits, including neuronal benefits. Briefly, day-old pigs were randomized among 6 diets; (1) control diet, (2) diet supplemented with 2 g/L of 3′-sialyllactose, (3) diet supplemented with 4 g/L of 3′-sialyllactose, (4) diet supplemented with 2 g/L of 6′-sialyllactose, (5) diet supplement with 4 g/L of 6′-sialyllactose, and (6) 2 g/L PDX and 2 g/L GOS. The pigs were fed three times per day for 21 days.
Pigs were euthanized and intestinal digesta were analyzed from the proximal and distal colon. The microbiome analysis was performed via 16S rDNA Illumina sequencing. Briefly, DNA was extracted from digesta using the UltraClean Tissue and Cells DNA Isolation Kit (MoBio). The DNA was then cleaned using PowerClean DNA Clean-Up Kit (ThermoFisher Scientific, Waltham, Mass.) and quantified with the Qubit Quant-iT dsDNA Broad- Range Kit (MoBio Laboratories, Carlsbad, Calif.). The V4 region of 16S ribosomal RNA was amplified using primers 515F (5#-GTGCCAGCMGCCGCGGTAA-3#) and 806R (5#-[…]-3#). Resulting PCR products were sequenced using Illumina MiSeq paired-end technology. High-quality sequences were searched against Greengenes database and then clustered at 97% sequence identity to form operational taxonomic units (OTUs) and assigned taxonomic classification. Similarity between microbial communities was assessed using the Bray-Curtis distance metric and then visualized using principal coordinates analysis. To test the community differences between microbiota between all groups of samples, we used the Adonis function. Because all genera were considered in the test, the Bonferroni multiple comparison correction was applied.

[3] = tested on: heat shock protein 72 (Hsp72); experiment: Liver Hsp72 after inescapable tail shock stress in diet-fed rats; assay type: in vivo, male F344 rats; conditions: diet for 4 weeks, after stressor exposure
Text: This study sought to determine whether the administration of PDX, GOS, and lactoferrin could modulate stress-evoked responses and the concentration of inflammatory cytokines and chemokines in blood or tissue. Briefly, male F344 rats were pair-housed in a barrier facility and fed experimental or control diet for 4 weeks. The diet formulations were as follows: (1) control, (2) diet supplemented with lactoferrin (LAC), (3) diet supplemented with GOS and PDX, and (4) diet supplemented with GOS, PDX, and Lactoferrin.
The rats were pair housed in standard Nalgene Plexiglas cages (45 cm×25.2 cm×14.7 cm) and had ad libitum access to food and water for the duration of the experimental procedures. Food consumption was monitored three times per week by weighing the chow pellets within each food hopper. Following 4 weeks on the diets, rats were exposed to inescapable (IS) or remained within their home cage undisturbed (home cage controls; HCC). IS consisted of 100, 1.5 mA inescapable tail shocks administered at variable intervals over a period of approximately 2 hours. Rats exposed to IS were restrained in Broome-style Plexiglas tubes (23.4 cm in length and 7.0 cm in diameter) with their tails exposed for electrode attachment.
Furthermore, in the same study heat shock protein 72 (Hsp72) was measured in the liver. […]

[4] = supplemented diet, colon digesta

CC(=O)N[C@H]1[C@H]([C@H](O)[C@H](O)CO)O[C@@](O[C@H]2[C@@H](O)[C@@H](CO)O[C@@H](O[C@H]3[C@H](O)[C@@H](O)C(O)O[C@@H]3CO)[C@@H]2O)(C(=O)O)C[C@@H]1O (stereo partly shown) [3′-sialyllactose] was tested, and the “increase of ganglioside-bound sialic acid in the cerebellum compared to control pigs” value [1] was “over 10%”.
In the case of CC(=O)N[C@H]1[C@H]([C@H](O)[C@H](O)CO)O[C@@](OC[C@H]2O[C@@H](O[C@H]3[C@H](O)[C@@H](O)[C@H](O)O[C@@H]3CO)[C@H](O)[C@@H](O)[C@H]2O)(C(=O)O)C[C@@H]1O [6′-sialyllactose], the “bacterial taxa of Collinsella aerofaciens, Ruminococcus, Faecalibacterium and Prevotella” value ([2]; diet supplemented with 4 g/L, compared to the control diet) is reported as “increase”, the “microbiome difference versus control diet” value ([2]; diet supplemented with 4 g/L, proximal and distal colon) is reported as “statistically significant microbiome difference” and the “bacterial taxa belonging to the phyla Actinobacteria and Bacteroidetes” value ([2]; diet supplemented with 4 g/L, versus control diet) is reported as “statistically significant increase”. The “taxa of the family Enterobacteriaceae and Enterococaceae, fold lower than in the control diet” value [2, 4] was 2.3 fold and the “taxa of the family Lachnospiraceael and order Lactobacillales, fold lower than in the control diet” value [2, 4] was 4 fold.
For lactoferrin, the “effect of stress on liver Hsp72 expression” value [3] was “reduction in the effect of stress”.
